# Test system: 857933-349-R-J2-PDC complex spheroids, viability
# Assay: Anticancer human tumor 857933-349-R-J2-PDC patient-derived colon adenocarcinoma cell line growth inhibition [GQUAD]
# Details: for IC50: curve of first compound; for viability, T/C: stronger effect = lower value
# Text: DNA G-quadruplex Stabilizer Agents in Combinations in Complex Spheroids
# A high-throughput screen of multi-cell type tumor spheroids was designed to identify active combinations of DNA G-quadruplex stabilizer agents and targeted small molecules. Complex spheroids include a stromal component modeled by human endothelial cells (HUVEC) and fibroblasts modeled by human mesenchymal stem cells (MSCs). The concentration ranges selected for each drug and investigational agent were based upon clinically achievable concentrations if the clinical Cmax of the agent was known.
# Compounds. The drugs and investigational agents: pidnarulex (CX-5461; NSC782164), APTO-253 (NSC789042), BRACO-19 (NSC847499), peposertib (NSC802822), ceralasertib (NSC780249), elimusertib (NSC800525), camonsertib (NSC841442), AZD-1390 (NSC803789), olaparib (NSC753686), talazoparib (NSC767125), ART-558 (NSC835418), sotorasib (NSC818433), MRTX-1133 (NSC836407), SN-38 (NSC673596), topotecan (NSC609699), etoposide (NSC141540), doxorubicin (NSC123127), gemcitabine (NSC613327), 5-fluorouracil (NSC19893), paclitaxel (NSC125973), vemurafenib (NSC761431), panobinostat (NSC761190), R-306465 (JNJ-16241199; NSC773264), adavosertib (NSC754352), TP-3654 (NSC805149), carboplatin (NSC241240), KSQ-4279 (NSC840948), and staurosporine (NSC755774) were obtained from the National Cancer Institute (NCI) Developmental Therapeutics Program Chemical Repository (34). The FDA-approved anticancer drug set is available from the NCI Developmental Therapeutics Program. […] The stock solutions were prepared in dimethyl sulfoxide (DMSO, Sigma-Aldrich, St. Louis, MO, cat. D2650) at 800-fold the tested concentration and stored at -70 degrees C prior to their use. All drugs and investigational agents were tested over a range starting from a high concentration at or near the clinical Cmax and decreasing in half-log increments. If the clinical Cmax for an agent had not been determined, the highest concentration tested was 10 microM.
# 2.3 Cell Culture. All cells were maintained in an incubator at 37 degrees C and 5% CO2 with 95% humidity. The PDC lines were cultured according to standard operating procedures established by the NCI PDMR. All PDCs were thawed and cultured in Matrigel-coated flasks prepared with a working solution of 1X Ham's F-12 nutrient mix, without supplementation (Invitrogen, cat. 11765054), 100 U/mL penicillin-streptomycin (Invitrogen, cat. 15140122), and 2.5% Matrigel (Corning Inc., cat. 354248) for the first three passages. The 857933-349-R-J2-PDC line was cultured in 6C/Colon 1B media, which includes advanced DMEM/F-12 (Thermo Fisher Scientific, cat. 12634028), 10 mM HEPES (Thermo Fisher Scientific, cat. 15630080), 1X GlutaMAX supplement (Thermo Fisher Scientific, cat. 35050061), 0.1 mg/mL primocin (InvivoGen, cat. ant-pm-2), 10% defined fetal bovine serum, heat inactivated (HyClone Laboratories Inc., cat. SH30070.03HI), 50% L-WRN conditioned media (ATCC, cat. CRL-3276), 1.25 mM N-Acetyl-L-cysteine (Sigma-Aldrich, cat. A9165), 10 mM nicotinamide (Sigma-Aldrich, cat. N0636), 1X B-27 supplement (Thermo Fisher Scientific, cat. 17504044), 1X N-2 supplement (Thermo Fisher Scientific, cat. 17502048), 10 microM Y-27632 dihydrochloride (Tocris Bioscience, cat. 1254), and 50 ng/mL human EGF recombinant protein (Thermo Fisher Scientific, cat. PHG0311). The 485176-168-R4-J1-PDC line was cultured in Panc media, which includes all 6C/Colon 1B media components plus 100 ng/mL human FGF-10 (Thermo Fisher Scientific, cat. 100-26), 500 nM SB-431542 (Selleckchem, cat. S1067), and gastrin (Tocris, cat. 3006).
# […]
# [1] = second compound 0.0316 µM, first compound 0.0316 µM
# [2] = second compound 0.0316 µM, first compound 0.1 µM
# [3] = second compound 0.0316 µM, first compound 0.316 µM
# [4] = second compound 0.0316 µM, first compound 1 µM
# [5] = second compound 0.0316 µM, first compound 3.16 µM
# [6] = second compound 0.0316 µM, first compound 10 µM
# [7] = second compound 0.1 µM, first compound 0.0316 µM
# [8] = second compound 0.1 µM, first compound 0.1 µM
# [9] = second compound 0.1 µM, first compound 0.316 µM
# [10] = second compound 0.1 µM, first compound 1 µM
# [11] = second compound 0.1 µM, first compound 3.16 µM
# [12] = second compound 0.1 µM, first compound 10 µM
# [13] = second compound 0.316 µM, first compound 0.0316 µM
# [14] = second compound 0.316 µM, first compound 0.1 µM
# [15] = second compound 0.316 µM, first compound 0.316 µM
# [16] = second compound 0.316 µM, first compound 1 µM
# [17] = second compound 0.316 µM, first compound 3.16 µM
# [18] = second compound 0.316 µM, first compound 10 µM
# [19] = second compound 1 µM, first compound 0.0316 µM
# [20] = second compound 1 µM, first compound 0.1 µM
# [21] = second compound 1 µM, first compound 0.316 µM
# [22] = second compound 1 µM, first compound 1 µM
# [23] = second compound 1 µM, first compound 3.16 µM
# [24] = second compound 1 µM, first compound 10 µM
# [25] = second compound 3.16 µM, first compound 0.0316 µM
# [26] = second compound 3.16 µM, first compound 0.1 µM
# [27] = second compound 3.16 µM, first compound 0.316 µM
# [28] = second compound 3.16 µM, first compound 1 µM
# [29] = second compound 3.16 µM, first compound 3.16 µM
# [30] = second compound 3.16 µM, first compound 10 µM
# [31] = second compound 10 µM, first compound 0.0316 µM
# [32] = second compound 10 µM, first compound 0.1 µM
# [33] = second compound 10 µM, first compound 0.316 µM
# [34] = second compound 10 µM, first compound 1 µM
# [35] = second compound 10 µM, first compound 3.16 µM
# [36] = second compound 10 µM, first compound 10 µM
# 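Note: spheroids exposed to compounds for one week before readout.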
# 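Throughout, for viability, T/C: percent viability relative to vehicle DMSO wells taken as 100%.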
structure (smiles),measurement,setting,value
C=CCn1c(=O)c2cnc(Nc3ccc(N4CCN(C)CC4)cc3)nc2n1-c1cccc(C(C)(C)O)n1 + CN(C)c1ccc(Nc2c3ccc(NC(=O)CCN4CCCC4)cc3nc3cc(NC(=O)CCN4CCCC4)ccc23)cc1,IC50,second compound 0.0316 µM,1840 nM
same,IC50,second compound 0.1 µM,1650 nM
same,IC50,second compound 0.316 µM,1510 nM
same,IC50,second compound 1 µM,1570 nM
same,IC50,second compound 3.16 µM,1190 nM
same,IC50,second compound 10 µM,756 nM
same,"viability, T/C",[1],102%
same,"viability, T/C",[2],102%
same,"viability, T/C",[3],96.6%
same,"viability, T/C",[4],75.7%
same,"viability, T/C",[5],26.1%
same,"viability, T/C",[6],27.9%
same,"viability, T/C",[7],101%
same,"viability, T/C",[8],99.4%
same,"viability, T/C",[9],99.2%
same,"viability, T/C",[10],68.6%
same,"viability, T/C",[11],24.3%
same,"viability, T/C",[12],27.3%
same,"viability, T/C",[13],97.7%
same,"viability, T/C",[14],95.3%
same,"viability, T/C",[15],101%
same,"viability, T/C",[16],63.1%
same,"viability, T/C",[17],28.4%
same,"viability, T/C",[18],24.9%
same,"viability, T/C",[19],94.3%
same,"viability, T/C",[20],81.6%
same,"viability, T/C",[21],87.8%
same,"viability, T/C",[22],60.8%
same,"viability, T/C",[23],32.5%
same,"viability, T/C",[24],33.8%
same,"viability, T/C",[25],88%
same,"viability, T/C",[26],73.5%
same,"viability, T/C",[27],75.5%
same,"viability, T/C",[28],53.5%
same,"viability, T/C",[29],31.8%
same,"viability, T/C",[30],28.6%
same,"viability, T/C",[31],62.1%
same,"viability, T/C",[32],62.6%
same,"viability, T/C",[33],57.6%
same,"viability, T/C",[34],47.7%
same,"viability, T/C",[35],32.2%
same,"viability, T/C",[36],25.2%
CC(=O)O[C@H]1C(=O)[C@@]2(C)[C@H]([C@H](OC(=O)c3ccccc3)[C@]3(O)C[C@H](OC(=O)[C@H](O)[C@@H](NC(=O)c4ccccc4)c4ccccc4)C(C)=C1C3(C)C)[C@]1(OC(C)=O)CO[C@@H]1C[C@@H]2O + CN(C)c1ccc(Nc2c3ccc(NC(=O)CCN4CCCC4)cc3nc3cc(NC(=O)CCN4CCCC4)ccc23)cc1,IC50,second compound 0.0316 µM,66.3 nM
same,IC50,second compound 0.1 µM,62.7 nM
same,IC50,second compound 0.316 µM,62.1 nM
same,IC50,second compound 1 µM,60.2 nM
same,IC50,second compound 3.16 µM,55.1 nM
same,IC50,second compound 10 µM,< 31.6 nM
same,"viability, T/C",[1],75%
same,"viability, T/C",[2],36%
same,"viability, T/C",[3],22.3%
same,"viability, T/C",[4],23.4%
same,"viability, T/C",[5],23.6%
same,"viability, T/C",[6],27.1%
same,"viability, T/C",[7],75.5%
same,"viability, T/C",[8],33.7%
same,"viability, T/C",[9],22.2%
same,"viability, T/C",[10],23%
same,"viability, T/C",[11],22.6%
same,"viability, T/C",[12],26.4%
same,"viability, T/C",[13],70.9%
same,"viability, T/C",[14],35.2%
same,"viability, T/C",[15],19.6%
same,"viability, T/C",[16],20.5%
same,"viability, T/C",[17],24%
same,"viability, T/C",[18],27.2%
same,"viability, T/C",[19],71.6%
same,"viability, T/C",[20],33%
same,"viability, T/C",[21],22.1%
same,"viability, T/C",[22],21.3%
same,"viability, T/C",[23],26.2%
same,"viability, T/C",[24],26.8%
same,"viability, T/C",[25],67.4%
same,"viability, T/C",[26],31.6%
same,"viability, T/C",[27],26%
same,"viability, T/C",[28],24.5%
same,"viability, T/C",[29],27.2%
same,"viability, T/C",[30],30.9%
same,"viability, T/C",[31],54.9%
same,"viability, T/C",[32],43.9%
same,"viability, T/C",[33],38.6%
same,"viability, T/C",[34],33.4%
same,"viability, T/C",[35],34.3%
same,"viability, T/C",[36],41.4%
O=c1[nH]cc(F)c(=O)[nH]1 + CN(C)c1ccc(Nc2c3ccc(NC(=O)CCN4CCCC4)cc3nc3cc(NC(=O)CCN4CCCC4)ccc23)cc1,IC50,second compound 0.0316 µM,7510 nM
same,IC50,second compound 0.1 µM,9410 nM
same,IC50,second compound 0.316 µM,8130 nM
same,IC50,second compound 1 µM,7140 nM
same,IC50,second compound 3.16 µM,7560 nM
same,IC50,second compound 10 µM,9080 nM
same,"viability, T/C",[1],104%
same,"viability, T/C",[2],96.8%
same,"viability, T/C",[3],97%
same,"viability, T/C",[4],88.7%
same,"viability, T/C",[5],60.6%
same,"viability, T/C",[6],46.5%
same,"viability, T/C",[7],103%
same,"viability, T/C",[8],105%
same,"viability, T/C",[9],91.7%
same,"viability, T/C",[10],86.4%
same,"viability, T/C",[11],61.3%
same,"viability, T/C",[12],50%
same,"viability, T/C",[13],102%
same,"viability, T/C",[14],96.7%
same,"viability, T/C",[15],100%
same,"viability, T/C",[16],83.7%
same,"viability, T/C",[17],64.8%
same,"viability, T/C",[18],46.7%
same,"viability, T/C",[19],95.3%
same,"viability, T/C",[20],91.8%
same,"viability, T/C",[21],95.6%
same,"viability, T/C",[22],77.7%
same,"viability, T/C",[23],63.6%
same,"viability, T/C",[24],44.6%
same,"viability, T/C",[25],92.9%
same,"viability, T/C",[26],80%
same,"viability, T/C",[27],92.7%
same,"viability, T/C",[28],75.1%
same,"viability, T/C",[29],61.7%
same,"viability, T/C",[30],46.3%
same,"viability, T/C",[31],70.9%
same,"viability, T/C",[32],78.9%
same,"viability, T/C",[33],77.2%
same,"viability, T/C",[34],74.4%
same,"viability, T/C",[35],61.4%
same,"viability, T/C",[36],49%

# From PubChem BioAssay AID2060491 (Molecular Pharmacology Branch, DTP, NCI, 2025)
